According to ChEMBL document CHEMBL1139972, “Dihydro-[1H]-quinolin-2-ones as retinoid X receptor (RXR) agonists for potential treatment of dyslipidemia” (Bioorg Med Chem Lett, 2007):
pEC50: −log10 of the molar value.

What was measured:
[1] = Activity at RXR-LXR heterodimer assessed as induction of ABCA1 mRNA; parameters: species or system Homo sapiens
Homo sapiens = organism: Homo sapiens; test: Activation of RXR-LXR heterodimer assessed as induction of ABCA1 mRNA relative to 5-((3-(1-ethyl-4,4,6-trimethyl-2-oxo-1,2,3,4-tetrahydroquinolin-7-yl)-4-(trifluoromethoxy)phenyl)methylene)thiazolidine-2,4-dione; parameters: concentration or dose not given beside the values
[2] = target: T1, Retinoic acid receptor RXR-alpha (Homo sapiens) (UniProt P19793); test: Activity at RXRalpha by GAL4DNA cotransfection assay relative to 5-((3-(1-ethyl-4,4,6-trimethyl-2-oxo-1,2,3,4-tetrahydroquinolin-7-yl)-4-(trifluoromethoxy)phenyl)methylene)thiazolidine-2,4-dione; parameters: concentration or dose not given beside the values
T1 sequence (whole entry): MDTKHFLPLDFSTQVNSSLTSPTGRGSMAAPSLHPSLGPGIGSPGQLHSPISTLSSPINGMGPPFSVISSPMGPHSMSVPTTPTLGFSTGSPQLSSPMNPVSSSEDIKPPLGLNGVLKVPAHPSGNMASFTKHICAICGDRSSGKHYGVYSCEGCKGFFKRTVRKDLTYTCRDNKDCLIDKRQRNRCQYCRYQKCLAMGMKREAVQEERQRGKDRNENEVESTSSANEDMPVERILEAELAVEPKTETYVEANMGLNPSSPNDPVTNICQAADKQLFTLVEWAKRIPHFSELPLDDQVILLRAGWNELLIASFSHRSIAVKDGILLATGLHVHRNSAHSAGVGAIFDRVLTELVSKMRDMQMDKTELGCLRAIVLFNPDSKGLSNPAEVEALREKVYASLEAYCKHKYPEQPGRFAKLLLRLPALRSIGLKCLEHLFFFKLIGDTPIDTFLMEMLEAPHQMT

[3] = Activity at RXR-PPARgamma in human preadipocytes assessed as induction of adipocytes fatty acid binding protein; assay type: cell-based
Rattus norvegicus [4] = test: Effect on serum cholesterol level in high cholesterol diet fed Sprague-Dawley rat at 10 mg/kg, po after 8 days relative to control; assay type: functional
Rattus norvegicus [5] = test: Effect on serum HDL-C level in high cholesterol diet fed Sprague-Dawley rat at 10 mg/kg, po after 8 days relative to control; assay type: functional
Rattus norvegicus [6] = test: Effect on serum LDL-C level in high cholesterol diet fed Sprague-Dawley rat at 10 mg/kg, po after 8 days relative to control; assay type: functional
Rattus norvegicus [7] = test: Effect on serum triglyceride level in high cholesterol diet fed Sprague-Dawley rat at 10 mg/kg, po after 8 days relative to control; assay type: functional
[8] = target: T2, Retinoic acid receptor RXR-alpha (Homo sapiens, UniProt P19793); test: Activity at RXRalpha by GAL4DNA cotransfection assay
T2 sequence (P19793 whole entry): T1 sequence (whole entry)

Cc1cc2c(cc1-c1cc(CCC(=O)O)ccc1OC(F)(F)F)N(C(C)C)C(=O)CC2(C)C
pEC50 [1]: 9.00 | Activity (Homo sapiens): 59% | Activity [2]: 80%

CCN1C(=O)CC(C)(C)c2cc(C)c(-c3cc(/C=C4\SC(=O)NC4=O)ccc3OC(F)(F)F)cc21
pEC50 [1]: 6.74 | pEC50 [3]: 6.86 | Activity (Rattus norvegicus [4]): 267 mg/dL | Activity (Rattus norvegicus [5]): 47 mg/dL | Activity (Rattus norvegicus [6]): 41 mg/dL | Activity (Rattus norvegicus [7]): 286 mg/dL

CCN1C(=O)CC(C)(C)c2cc(C)c(-c3cc(OCC(=O)O)ccc3OC(F)(F)F)cc21
pEC50 [1]: < 5.52

CCN1C(=O)CC(C)(C)c2cc(C)c(-c3cc(OC(C)(C)C(=O)O)ccc3OC(F)(F)F)cc21
pEC50 [1]: < 5.52

CCN1C(=O)CC(C)(C)c2cc(C)c(-c3cc(C#CC(=O)O)ccc3OC(F)(F)F)cc21
pEC50 [1]: < 5.52

CCN1C(=O)CC(C)(C)c2cc(C)c(-c3cc(C4CC4C(=O)O)ccc3OC(F)(F)F)cc21 (racemic)
pEC50 [1]: 7.76 | pEC50 [8]: 7.72 | Activity [2]: 88%

Cc1cc2c(cc1-c1cc(CCC(=O)O)ccc1OCC(F)(F)F)N(C(C)C)C(=O)CC2(C)C
pEC50 [1]: 6.43 | Activity (Homo sapiens): 45% | pEC50 [8]: 7.44 | Activity [2]: 79%

Cc1cc2c(cc1-c1cc(C3CC3C(=O)O)ccc1OCC(F)(F)F)N(C)C(=O)CC2(C)C (racemic)
pEC50 [1]: < 5.52 | pEC50 [8]: 6.84 | Activity [2]: 108%

Cc1cc2c(cc1-c1cc(C3CC3C(=O)O)ccc1OC(F)(F)F)N(C(C)C)C(=O)CC2(C)C (racemic)
pEC50 [1]: < 5.52 | pEC50 [8]: 8.30 | Activity [2]: 85%

CCN1C(=O)CC(C)(C)c2cc(C)c(-c3cc([C@H]4C[C@@H]4C(=O)O)ccc3OC(F)(F)F)cc21
pEC50 [1]: < 5.52 | pEC50 [8]: 6.44 | Activity [2]: 92%

CCN1C(=O)CC(C)(C)c2cc(C)c(-c3cc(C4CC4C(=O)O)ccc3OCC(F)(F)F)cc21 (racemic)
pEC50 [1]: < 5.52 | pEC50 [8]: 6.94 | Activity [2]: 87%

COc1ccc(CCC(=O)O)cc1-c1cc2c(cc1C)C(C)(C)CC(=O)N2C(C)C
pEC50 [1]: < 5.52 | pEC50 [8]: 6.44 | Activity [2]: 60%

Cc1cc2c(cc1-c1cc(CCC(=O)O)ccc1OC(F)(F)F)N(CC(F)(F)F)C(=O)CC2(C)C
pEC50 [1]: < 5.52 | pEC50 [8]: 8.85 | Activity [2]: 100%
